According to US7893271B2, “Benzimidazole carbamates and (thio) carbamates, and the synthesis and use thereof” (Intervet International B.V., priority 2005, dated 2011):
Converted amounts (≈) assume the structure as drawn. “And” between values parts separate entries of the source, which are not always exact repeats. Equal entries are not always repeated. Where two headings read alike, the source gives them in different places.

How the values were obtained:
[1] = solubility in water of compounds of the invention
[2] = test system: T. colubriformis; experiment: anthelmintic efficacy in animals experimentally infected with T. colubriformis; type: in vivo, Meriones unguiculatus
Method: (§1) The compounds were tested at doses of 3 mg/kg bodyweight (BW), 1 mg/kg BW and 0.3 mg/kg BW.
(§2) The animals were orally infected L3-larvae of each T. axei and T. colubriformis. On D 19 post infectionem (PI) animals were treated once IP, SC or PO with the test compounds in 10% DMF/90% water a dose of 3 mg/kg BW, 1 mg/kg BW or 0.3 mg/kg BW. Three days after treatment animals were necropsied and worm burden in stomach and small intestine was determined. Efficacy was defined as the reduction of the mean worm count (geometric mean) in the treatment groups in comparison to the control group. The dose-response relationship was investigated by calculating Pearson's coefficient of correlation.

[3] = test system: T. axei; experiment: anthelmintic efficacy in animals experimentally infected with Trichostrongylus axei; type: in vivo, Meriones unguiculatus
Method: as §1, §2

[4] = test system: Haemonchus contortus; experiment: anthelmintic efficacy in animals experimentally infected with Haemonchus contortus; type: in vivo, Meriones unguiculatus
Method: as §1
The animals were orally infected with L3-larvae of H. contortus. On D 10 post infectionem (PI) animals were treated once IP, SC or PO with the test compounds in 10% DMF/90% water at doses of 3.0 mg/kg BW, 1.0 mg/kg BW or 0.3 mg/kg BW. Three days after treatment animals were necropsied and larvae burden in stomachs was determined. Efficacy was defined as the reduction of the mean larvae count (geometric mean) in the treatment groups in comparison to the control group. The dose-response relationship was investigated by calculating Pearson's coefficient of correlation.

[5] = test system: Ascaridia galli (intestinal roundworm of chicken), larval stage 3 (L3); experiment: in vitro larval assay, minimum effective concentration; type: cell-based; conditions: day 5, 20 larvae per well, microscopic examination
Method: (§3) Anthelmintic effects of the compounds of the present invention were tested in vitro using gut welling larval stages of two parasitic nematode species: Ascaridia galli (intestinal roundworm of chicken), larval stage 3 (L3), and Oesophagostomum dentatum (nodular worm of swine), larval stages 3 and 4 (L3; LA).
(§4) Principle of the assays: Various concentrations of compounds were incubated in 96 well microtiter plates, in which parasites were then distributed at 20 larvae per well. The anthelmintic effects were classified at day 5 by microscopic examination assessing mortality, damage, motility, progression of development and neutral red uptake by the larvae in comparison to a DMSO-control and the standard anthelmintics fenbendazole. The anthelmintic effects were defined by the minimum effective concentration (MEC) as reflected in table 1.

[6] = test system: Oesophagostomum dentatum (nodular worm of swine), larval stages 3 and 4; experiment: as above; type: cell-based; conditions: day 5, 20 larvae per well
Method: as §3, §4

[7] = in water; literature; cited from earlier work
[8] = reported; cited from earlier work
[9] = 0.3 mg/kg BW once, IP (fenbendazole equivalent 0.3; Compound A 0.2 mg/kg)
[10] = 0.3 mg/kg BW once, PO (fenbendazole equivalent 0.3; Compound A 0.2 mg/kg)
[11] = 0.3 mg/kg BW once, SC (fenbendazole equivalent 0.3; Compound A 0.2 mg/kg)
[12] = 1 mg/kg BW once, IP (fenbendazole equivalent 1.0; Compound A 0.6 mg/kg)
[13] = 1 mg/kg BW once, PO (fenbendazole equivalent 1.0; Compound A 0.6 mg/kg)
[14] = 1 mg/kg BW once, SC (fenbendazole equivalent 1.0; Compound A 0.6 mg/kg)
[15] = 3 mg/kg BW once, IP (fenbendazole equivalent 3.0; Compound A 1.8 mg/kg)
[16] = 3 mg/kg BW once, IP (fenbendazole equivalent 3.0; Compound A 1.8 mg/kg), listed as Fenbendazole
[17] = 3 mg/kg BW once, PO (fenbendazole equivalent 3.0; Compound A 1.8 mg/kg)
[18] = 3 mg/kg BW once, PO (fenbendazole equivalent 3.0; Compound A 1.8 mg/kg), listed as Fenbendazole
[19] = 3 mg/kg BW once, SC (fenbendazole equivalent 3.0; Compound A 1.8 mg/kg)
[20] = 3 mg/kg BW once, SC (fenbendazole equivalent 3.0; Compound A 1.8 mg/kg), listed as Fenbendazole

Compound	Reduction worm number (%) T. colubriformis [2, 9]	Reduction worm number (%) T. colubriformis [2, 10]	Reduction worm number (%) T. colubriformis [2, 11]	Reduction worm number (%) T. colubriformis [2, 12]	Reduction worm number (%) T. colubriformis [2, 13]	Reduction worm number (%) T. colubriformis [2, 14]	Reduction worm number (%) T. colubriformis [2, 15]	Reduction worm number (%) T. colubriformis [2, 17]	Reduction worm number (%) T. colubriformis [2, 19]	Reduction worm number (%) T. axei [3, 9]	Reduction worm number (%) T. axei [3, 10]	Reduction worm number (%) T. axei [3, 11]	Reduction worm number (%) T. axei [3, 12]	Reduction worm number (%) T. axei [3, 13]	Reduction worm number (%) T. axei [3, 14]	Reduction worm number (%) T. axei [3, 15]	Reduction worm number (%) T. axei [3, 17]	Reduction worm number (%) T. axei [3, 19]	Reduction worm number (%) H. contortus larvae [4, 9]	Reduction worm number (%) H. contortus larvae [4, 10]	other results
CCCSc1ccc2c(c1)nc(NC(=O)OC)n2COP(=O)([O-])[O-].[Na+].[Na+] [(1-phosphonooxymethyl-5- and 6-propylsulfanyl-1(H)-benzoimidazol-2-yl)-carbamic acid methyl esters]	–	–	–	–	–	–	–	–	–	–	–	–	–	–	–	–	–	–	–	–	solubility ([1]; water): ≥ 50 mM
COC(=O)Nc1nc2ccc(Sc3ccccc3)cc2[nH]1 [fenbendazole, reference compound]	79.33%	68.75%	43.18%	80.04%	80.04%	81.10%	100%	100%	100%	−283.85%	−115.44%	82.15%	80.94%	88.80%	82.15%	100%	100%	100%	80.63%	91.73%	Reduction worm number (%) T. colubriformis [2, 16]: 100.00%; Reduction worm number (%) T. colubriformis [2, 18]: 100.00%; Reduction worm number (%) T. colubriformis [2, 20]: 100.00%; Reduction worm number (%) T. axei [3, 16]: 100.00%; Reduction worm number (%) T. axei [3, 18]: 100.00%; Reduction worm number (%) T. axei [3, 20]: 100.00%; Reduction worm number (%) H. contortus larvae [4, 11]: 88.36%; Reduction worm number (%) H. contortus larvae [4, 12]: 89.33%; Reduction worm number (%) H. contortus larvae [4, 13]: 78.05%; Reduction worm number (%) H. contortus larvae [4, 14]: 89.16%; Reduction worm number (%) H. contortus larvae [4, 15]: 100.00%; Reduction worm number (%) H. contortus larvae [4, 17]: 96.49%; Reduction worm number (%) H. contortus larvae [4, 19]: 95.10%; Minimum effective concentrations A. galli (L3) [5]: 0.050 µM; Minimum effective concentrations O. dentatum (L3) ([6]; L3): 1.000 µM; Minimum effective concentrations O. dentatum (L4) ([6]; L4): 0.025 µM; solubility [7]: lower than 0.05 μg/mL
CCCSc1ccc([N+](=O)[O-])c(N/C(=N/CCS(=O)(=O)O)NC(=O)OC)c1 [netobimin]	–	–	–	–	–	–	–	–	–	–	–	–	–	–	–	–	–	–	–	–	embryonal toxicity [8]: reported to cause embryonal toxicity
COc1ccc2[nH]c([S+]([O-])Cc3ncc(C)c(OC)c3C)nc2c1 (centres unmarked) [omeprazole]	–	–	–	–	–	–	–	–	–	–	–	–	–	–	–	–	–	–	–	–	solubility [7]: 500 µg/mL (≈ 1450 µM)
(5- and 6-phenylsulfanyl-1-phosphonooxymethyl-1(H)-benzoimidazol-2-yl)-carbamic acid methyl esters [Compound A]	−50.17%	−3.71%	−106.50%	28.18%	37.27%	68.61%	93.26%	100.00%	85.70%	69.66%	59.20%	−43.64%	83.98%	96.71%	82.98%	100.00%	98.00%	100.00%	65.02%	87.00%	overall efficacy compared with fenbendazole ([2]; T. colubriformis, all doses and routes): same efficacy as treatment with fenbendazole; Reduction worm number (%) T. axei ([3]; 0.3 mg/kg BW once, SC (fenbendazole equivalent 0.3; Compound A 0.2 mg/kg), listed as compound A): 43.64%; Reduction worm number (%) T. axei ([3]; 3 mg/kg BW once, IP (fenbendazole equivalent 3.0; Compound A 1.8 mg/kg), listed as compound A): 100%; Reduction worm number (%) T. axei ([3]; 3 mg/kg BW once, SC (fenbendazole equivalent 3.0; Compound A 1.8 mg/kg), listed as compound A): 100%; overall efficacy compared with fenbendazole ([3]; T. axei, all doses and routes): same efficacy as treatment with fenbendazole; Reduction worm number (%) H. contortus larvae [4, 11]: 47.40%; Reduction worm number (%) H. contortus larvae [4, 12]: 90.65%; Reduction worm number (%) H. contortus larvae [4, 13]: 88.62%; Reduction worm number (%) H. contortus larvae [4, 14]: 87.61%; Reduction worm number (%) H. contortus larvae [4, 15]: 93.81%; Reduction worm number (%) H. contortus larvae [4, 17]: 90.81%; Reduction worm number (%) H. contortus larvae [4, 19]: 94.84%; overall efficacy compared with fenbendazole ([4]; H. contortus, all doses and routes): same efficacy as treatment with fenbendazole
(5- and 6-phenylsulfanyl-1-phosphonooxymethyl-1(H)-benzoimidazol-2-yl)-carbamic acid methyl esters di-sodium salts	–	–	–	–	–	–	–	–	–	–	–	–	–	–	–	–	–	–	–	–	solubility in water [1]: 132 mM and 67 g/L
